Laboratory results reported in US7279476B2, “Pyrazole-derived kinase inhibitors and uses thereof” (Vertex Pharmaceuticals Incorporated, priority 2001, dated 2007).

Assays:
[1] = biological target: activated ERK2 (Homo sapiens, UniProt P28482); assay: ERK2 inhibition spectrophotometric coupled-enzyme assay; type: biochemical; details: 10 nM activated ERK2, 65 μM ATP, 30° C., pH 7.5; read-out: ERK2 Inhibitory Activity (Ki class)
Experimental: Compounds are assayed for the inhibition of ERK2 by a spectrophotometric coupled-enzyme assay (Fox et al (1998) Protein Sci 7, 2249). In this assay, a fixed concentration of activated ERK2 (10 nM) is incubated with various concentrations of the compound in DMSO (2.5%) for 10 min. at 30° C. in 0.1 M HEPES buffer, pH 7.5, containing 10 mM MgCl2, 2.5 mM phosphoenolpyruvate, 200 μM NADH, 150 μg/mL pyruvate kinase, 50 μg/mL lactate dehydrogenase, and 200 μM erktide peptide. The reaction is initiated by the addition of 65 μM ATP. The rate of decrease of absorbance at 340 nm is monitored, which indicates the extent of uninhibited enzyme present in the assay. The IC50 is evaluated from the rate data as a function of inhibitor concentration.
The compound numbers correspond to the compound numbers in Tables 1 and 2.

[2] = test system: Colon cancer cells (HT-29 cell line); assay: ERK inhibition cell proliferation assay (3H-thymidine uptake); type: cell-based; details: Homo sapiens, HT-29 cells, 3 days incubation
Experimental: Compounds may be assayed for the inhibition of ERK2 by a cell proliferation assay. In this assay, a complete media is prepared by adding 10% fetal bovine serum and penicillin/streptomycin solution to RPMI 1640 medium (JRH Biosciences). Colon cancer cells (HT-29 cell line) are added to each of 84 wells of a 96 well plate at a seeding density of 10,000 cells/well/150 μL. The cells are allowed to attach to the plate by incubating at 37° C. for 2 hours. A solution of test compound is prepared in complete media by serial dilution to obtain the following concentrations: 20 μM, 6.7 μM, 2.2 μM, 0.74 μM, 0.25 μM, and 0.08 μM. The test compound solution (50 μL) is added to each of 72 cell-containing wells. To the 12 remaining cell-containing wells, only complete media (200 μL) is added to form a control group in order to measure maximal proliferation. To the remaining 12 empty wells, complete media is added to form a vehicle control group in order to measure background. The plates are incubated at 37° C. for 3 days. A stock solution of ^3H-thymidine (1 mCi/mL, New England Nuclear, Boston, Mass.) is diluted to 20 μCi/mL in RPMI medium then 20 μL of this solution is added to each well. The plates are further incubated at 37° C. for 8 hours then harvested and analyzed for ^3H-thymidine uptake using a liquid scintillation counter.

[3] = test system: AKT; assay: AKT inhibition standard coupled enzyme assay; type: biochemical; details: screened at 30 μM compound, 45 nM AKT, 170 μM ATP; compounds with greater than 50% inhibition titrated
Experimental: Compounds were screened for their ability to inhibit AKT using a standard coupled enzyme assay (Fox et al., Protein Sci., (1998) 7, 2249). Assays were carried out in a mixture of 100 mM HEPES 7.5, 10 mM MgCl2, 25 mM NaCl, 1 mM DTT and 1.5% DMSO. Final substrate concentrations in the assay were 170 μM ATP (Sigma Chemicals) and 200 μM peptide (RPRAATF, American Peptide, Sunnyvale, Calif.). Assays were carried out at 30° C. and 45 nM AKT. Final concentrations of the components of the coupled enzyme system were 2.5 mM phosphoenolpyruvate, 300 μM NADH, 30 μg/ML pyruvate kinase and 10 μg/ml lactate dehydrogenase.
An assay stock buffer solution was prepared containing all of the reagents listed above, with the exception of AKT, DTT, and the test compound of interest. 56 μl of the stock solution was placed in a 384 well plate followed by addition of 1 μl of 2 mM DMSO stock containing the test compound (final compound concentration 30 μM). The plate was preincubated for about 10 minutes at 30° C. and the reaction initiated by addition of 10 μl of enzyme (final concentration 45 nM) and 1 mM DTT. Rates of reaction were obtained using a BioRad Ultramark plate reader (Hercules, Calif.) over a 5 minute read time at 30° C.

Chain of activated ERK2 (P28482 whole entry): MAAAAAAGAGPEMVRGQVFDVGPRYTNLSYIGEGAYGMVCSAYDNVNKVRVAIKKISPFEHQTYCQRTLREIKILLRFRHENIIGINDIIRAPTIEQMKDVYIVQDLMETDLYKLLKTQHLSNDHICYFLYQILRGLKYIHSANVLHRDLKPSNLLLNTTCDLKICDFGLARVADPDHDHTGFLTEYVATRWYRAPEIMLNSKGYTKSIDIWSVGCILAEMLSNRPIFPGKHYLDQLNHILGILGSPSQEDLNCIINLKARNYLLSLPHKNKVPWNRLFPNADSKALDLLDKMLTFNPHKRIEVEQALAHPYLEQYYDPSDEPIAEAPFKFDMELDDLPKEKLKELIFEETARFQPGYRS

Row | Ki [1] | IC50 [2] | inhibit AKT [3] | SMILES
1 | < 1 µM | – | – | O=C(NCc1ccc(-c2cn[nH]c2-c2c[nH]c(C(=O)N[C@H](CO)c3ccc(F)c(Cl)c3)c2)cc1Cl)O[C@H]1CCOC1 [II-7]
2 | < 1 µM | – | – | CC(=O)N1CCC[C@@H]1C(=O)NCc1ccc(-c2cn[nH]c2-c2c[nH]c(C(=O)NC(CO)c3ccc(F)c(Cl)c3)c2)cc1Cl (some centres unmarked) [II-4]
3 | < 1 µM | – | – | CC(=O)N1CCC[C@H]1C(=O)NCc1ccc(-c2cn[nH]c2-c2c[nH]c(C(=O)NC(CO)c3ccc(F)c(Cl)c3)c2)cc1Cl (some centres unmarked) [II-3]
4 | < 1 µM | – | – | O=C(CCCCCNc1ccc([N+](=O)[O-])c2nonc12)NCc1ccc(-c2cn[nH]c2-c2c[nH]c(C(=O)N[C@H](CO)c3ccc(F)c(Cl)c3)c2)cc1Cl [II-5]

Continued, compound first:

Row | SMILES | Ki [1] | IC50 [2] | inhibit AKT [3]
5 | O=C(NCc1ccccc1)c1cc(-c2[nH]ncc2-c2cccc(CN3CCOCC3)c2)c[nH]1 [II-10] | > 5 µM | – | –
6 | O=C(N[C@H](CO)c1ccc(F)c(Cl)c1)c1cc(-c2n[nH]cc2-c2ccc(CN3CCOCC3)c(Cl)c2)c[nH]1 [II-6, 4-[4-(3-Chloro-4-morpholin-4-ylmethyl-phenyl)-1H-pyrazol-3-yl]-1H-pyrrole-2-carboxylic acid [1-(3-chloro-4-fluoro-phenyl)-2-hydroxy-ethyl]-amide] | < 1 µM | < 10 µM | inhibit AKT
7 | O=C(N[C@H](CO)c1ccc(F)c(Cl)c1)c1cc(-c2n[nH]cc2-c2ccc(CNCc3cc[n+]([O-])cc3)c(Cl)c2)c[nH]1 [II-8] | < 1 µM | – | inhibit AKT
8 | O=C(N[C@H](CO)c1ccccc1)c1cc(-c2[nH]ncc2-c2ccc(C(=O)N3CCOCC3)c(Cl)c2)c[nH]1 [II-1] | < 1 µM | < 10 µM | –
9 | O=C(N[C@H](CO)c1ccc(F)c(Cl)c1)c1cc(-c2n[nH]cc2-c2ccc(CN(Cc3cc[n+]([O-])cc3)Cc3cc[n+](O)cc3)c(Cl)c2)c[nH]1 [II-9, 4-[4-(4-{[Bis-(1-oxy-pyridin-4-ylmethyl)-amino]-methyl}-3-chloro-phenyl)-1H-pyrazol-3-yl]-1H-pyrrole-2-carboxylic acid [1-(3-chloro-4-fluoro-phenyl)-2-hydroxy-ethyl]-amide] | < 1 µM | – | –
10 | CC(=O)N1C[C@H](O)C[C@H]1C(=O)NCc1ccc(-c2c[nH]nc2-c2c[nH]c(C(=O)N[C@H](CO)c3ccc(F)c(Cl)c3)c2)cc1Cl (stereo in doubt) [II-2, 4-[4-(4-{[(1-Acetyl-4-hydroxy-pyrrolidine-2-carbonyl)-amino]-methyl}-3-chloro-phenyl)-1H-pyrazol-3-yl]-1H-pyrrole-2-carboxylic acid [1-(3-chloro-4-fluoro-phenyl)-2-hydroxy-ethyl]-amide] | < 1 µM | – | –
